Assay results: patent US8404664B2, “Phosphonated Rifamycins and uses thereof for the prevention and treatment of bone and joint infections” (Targanta Therapeutics, Inc., priority 2005, dated 2013)
Values after ≈ are worked out from the molar mass of the structure shown.

Tests used:
[1] = tested on: S. aureus ATCC 13709 Novobiocin resistant mutant (bone infection); experiment: Prophylactic efficacy in rat model of S. aureus bone infection; format: in vivo; conditions: for Prophylactic effect (in words): rat bone infection, doses and times of Table 3, t-test p<0.05; for Measured bacterial titer: rat tibia 24 h postinfection
[2] = Levels of compound 9 in rat tibiae (microbiological assay); format: in vivo; conditions: for Amount of compound 9 in the uninfected tibiae: dose equivalent to 10 mg/kg of 9 (11: 15.5 mg/kg), three days prior to infection
Description: The experimentally obtained intact uninfected (contra lateral) tibia of the treated and infected rats described above was ground to a powder which was suspended in PBS+2% DMSO. The mixture was centrifuged for 2 min at 13,000 rpm. The amount of compound 9 released in the supernatant was determined by microbiological assay as described previously (Example 3).

[3] = tested on: S. aureus ATCC 13709 Novobiocin and Rifampicin resistant variant; experiment: microbe, parasite or virus in culture; format: cell-based; conditions: for Minimum inhibitory concentration, S. aureus ATCC 13709 variant: Novobiocin and Rifampicin resistant variant
Outline: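 Two-fold serial dilutions in DMSO tested in cation-adjusted Mueller Hinton broth per NCCLS M26-A, 5×10^5 c.f.u./mL inoculum, 1.25% final DMSO, duplicates.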

[4] = single dose 11 mg/kg parent drug equivalent, 3 days prior to infection

With “3-(((4-(2-(3-((bisphosphonomethyl)carbamoyl)propanoyloxy)ethyl)-1-piperazinyl)imino)methyl)rifamycin [Compound 11]” the “Prophylactic effect (in words)” value [1] was “statistically significant”, the Measured bacterial titer [1, 4] was 3.01 ± 0.47 Log CFU/g of bone and the “Level of compound 9 in uninfected tibia” value ([2]; 11 at 32 mg/kg once weekly for 4 weeks after the infection) was 1.28±0.18 μg/g of bone. The “Amount of compound 9 in the uninfected tibiae” value [2] was 0.88 ± 0.11 µg/g.

For CO[C@H]1/C=C/O[C@@]2(C)Oc3c(C)c(O)c4c(O)c(c(/C=N/N5CCN(CCO)CC5)c(O)c4c3C2=O)NC(=O)/C(C)=C\C=C\[C@H](C)[C@H](O)[C@@H](C)[C@@H](O)[C@@H](C)[C@H](OC(C)=O)[C@@H]1C [Compound 9, 3-(((4-(2-hydroxyethyl)-1-piperazinyl)imino)methyl)rifamycin], the Measured bacterial titer [1, 4] was 6.38 ± 0.90 Log CFU/g of bone and the “Amount of compound 9 in the uninfected tibiae” value [2] was under 0.17 µg/g.

For CO[C@H]1/C=C/O[C@@]2(C)Oc3c(C)c(O)c4c(=O)c(c5oc6cc(N7CCN(CCOC(=O)CCC(=O)NC(P(=O)(O)O)P(=O)(O)O)CC7)cc(O)c6nc-5c4c3C2=O)NC(=O)/C(C)=C\C=C\[C@H](C)[C@H](O)[C@@H](C)[C@@H](O)[C@@H](C)[C@H](OC(C)=O)[C@@H]1C.N.N [Compound 62], the “Activity against the Rifampicin resistant variant of S. aureus ATCC13709 (in words)” value (shortened to “Activity”) [3] was “complete lack of activity”, the “Minimum inhibitory concentration, S. aureus ATCC 13709 variant” value (“Minimum inhibitory concentration” below) [3] was over 128 µg/mL and the “Prophylactic effect (in words)” value [1] was “statistically significant”. For the same molecule, the Measured bacterial titer ([1]; single dose 20 mg/kg parent drug equivalent, 2 days prior to infection) was 1.98 ± 0.06 Log CFU/g of bone.

For CO[C@H]1/C=C/O[C@@]2(C)Oc3c(C)c(O)c4c(=O)c(c5oc6cc(N7CCN(CCC(=O)c8ccc(OCCCC(P(=O)(O)O)P(=O)(O)O)cc8)CC7)cc(O)c6nc-5c4c3C2=O)NC(=O)/C(C)=C\C=C\[C@H](C)[C@H](O)[C@@H](C)[C@@H](O)[C@@H](C)[C@H](OC(C)=O)[C@@H]1C [Compound 71], the “Activity” value [3] was “complete lack of activity”, the “Minimum inhibitory concentration” value [3] was 128 µg/mL (≈ 102 µM) and the “Prophylactic effect (in words)” value [1] was “statistically significant”. For the same molecule, the Measured bacterial titer ([1]; single dose 20 mg/kg parent drug equivalent, 3 days prior to infection) was 2.77 ± 1.00 Log CFU/g of bone.

In the case of CO[C@H]1/C=C/O[C@@]2(C)Oc3c(C)c(O)c4c(=O)c(c5oc6cc(N7CCN(CC(C)C)CC7)cc(O)c6nc-5c4c3C2=O)NC(=O)/C(C)=C\C=C\[C@H](C)[C@H](OC(=O)CCCOC(=O)CCC(=O)NC(P(=O)(O)O)P(=O)(O)O)[C@@H](C)[C@@H](O)[C@@H](C)[C@H](OC(C)=O)[C@@H]1C [Compound 81, 21-O-(4-((3-(bisphosphonomethyl)carbamoyl)propanoyloxy)butanoyl)-1′,4-Didehydro-1-deoxy-1,4-dihydro-3′-hydroxy-5′-[4-(2-methylpropyl)-1-piperazinyl]-1-oxorifamycin VIII], the “Activity” value [3] is reported as “complete lack of activity”, the “Minimum inhibitory concentration” value [3] is reported as over 128 µg/mL and the “Prophylactic effect (in words)” value [1] is reported as “statistically significant”. For the same molecule, the Measured bacterial titer ([1]; single dose 10 mg/kg parent drug equivalent, 3 days prior to infection) was 2.05 ± 0.06 Log CFU/g of bone.
